Legend:
pore-only NavMs = biological target: T1, pore-only NavMs (Magnetococcus marinus, UniProt A0L5S6); assay: […]+ uptake into proteoliposomes; type: biochemical; settings: 3:1 POPE:guest lipid, pH 7.5, 60 min; small but significant activation
T1 construct: gene Mmc1_0798; purified from decyl maltoside; tetramer; reconstituted in liposomes
T1 sequence (A0L5S6 130-237): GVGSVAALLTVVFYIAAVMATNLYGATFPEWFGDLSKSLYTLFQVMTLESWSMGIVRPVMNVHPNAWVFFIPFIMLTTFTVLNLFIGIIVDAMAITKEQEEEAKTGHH

NaChBac = biological target: T2, NaChBac (Halalkalibacterium halodurans, UniProt Q9KCR8); assay: […]+ uptake into proteoliposomes; type: biochemical; settings: 3:1 POPE:guest lipid, pH 7.5, 120 min; activator, greatest activity of guest lipids tested, modest variation
T2 construct: gene BH1501; full-length, expressed in E. coli, hexa-His tag cleaved with thrombin; ~31 kDa monomer; tetramer; reconstituted in liposomes
T2 sequence (Q9KCR8 1-274): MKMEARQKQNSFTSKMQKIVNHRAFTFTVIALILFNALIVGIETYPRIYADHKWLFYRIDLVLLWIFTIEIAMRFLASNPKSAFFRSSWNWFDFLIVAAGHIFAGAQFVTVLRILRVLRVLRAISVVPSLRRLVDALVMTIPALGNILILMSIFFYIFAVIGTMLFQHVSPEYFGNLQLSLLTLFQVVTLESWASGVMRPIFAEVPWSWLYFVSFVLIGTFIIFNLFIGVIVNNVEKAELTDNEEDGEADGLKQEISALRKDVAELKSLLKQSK

NavMs = biological target: T3, NavMs (Magnetococcus marinus, UniProt A0L5S6); assay: […]+ uptake into proteoliposomes; type: biochemical; settings: 3:1 POPE:guest lipid, pH 7.5, 60 min; activator, greatest activity of guest lipids tested
T3 construct: gene Mmc1_0798; expressed in E. coli, hexa-His tag cleaved with thrombin; tetramer; reconstituted in liposomes
T3 sequence (A0L5S6 1-239 limits assumed): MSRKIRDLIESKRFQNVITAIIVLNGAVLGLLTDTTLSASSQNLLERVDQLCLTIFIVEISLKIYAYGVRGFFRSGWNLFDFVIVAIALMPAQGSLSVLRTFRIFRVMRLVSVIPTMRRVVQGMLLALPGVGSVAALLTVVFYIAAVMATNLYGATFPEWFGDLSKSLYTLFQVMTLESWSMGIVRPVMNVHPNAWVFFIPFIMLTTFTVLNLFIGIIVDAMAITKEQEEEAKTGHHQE

[1] = biological target: NavSp pore-only construct (voltage sensor subdomain removed) (Silicibacter pomeroyi); assay: SEC; gel filtration of pore-only constructs in decyl maltoside (0.2% DM); elution at tetramer mass plus DM micelle (~30 kDa)
[2] = biological target: NavSp, voltage-gated sodium channel from Silicibacter pomeroyi (Silicibacter pomeroyi) (UniProt F7IVA8); assay: SEC; Superdex 200 10/300 GL; 10 mM Tris-HCl pH 7.5, 100 mM NaCl, 0.02% NaN3, 0.25% Cymal-5; elution at tetramer mass plus Cymal-5 micelle (~23 kDa)
NavSp = biological target: T4, NavSp (Ruegeria pomeroyi, UniProt F7IVA8); assay: […]+ uptake into proteoliposomes; type: biochemical; settings: 3:1 POPE:PI liposomes with 1% PI(4,5)P2, pH 7.5; inhibitor
T4 construct: gene SPO0030; full-length, expressed in E. coli, N-terminal hexa-His tag cleaved with thrombin; 258 amino acids; ~29 kDa monomer; tetramer; reconstituted in liposomes
T4 sequence (F7IVA8 1-258): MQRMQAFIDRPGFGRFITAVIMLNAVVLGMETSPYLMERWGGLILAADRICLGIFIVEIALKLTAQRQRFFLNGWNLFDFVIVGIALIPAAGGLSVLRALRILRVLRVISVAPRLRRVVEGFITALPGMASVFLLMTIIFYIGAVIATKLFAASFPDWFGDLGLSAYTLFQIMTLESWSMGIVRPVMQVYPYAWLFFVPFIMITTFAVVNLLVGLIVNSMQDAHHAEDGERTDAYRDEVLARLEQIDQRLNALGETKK

[3] = biological target: the molecule itself; assay: SEC; gel filtration of pore-only constructs in decyl maltoside (0.2% DM); elution at tetramer mass plus DM micelle (~30 kDa)
[4] = biological target: the molecule itself; assay: SEC; Superdex 200 10/300 GL; 10 mM Tris-HCl pH 7.5, 100 mM NaCl, 0.02% NaN3, 0.25% Cymal-5; elution at tetramer mass plus Cymal-5 micelle (~23 kDa)

Molecule: CCCCCCCC/C=C\CCCCCCCC(=O)OC[C@H](COP(=O)(O)OCC(O)COP(=O)(O)OC[C@@H](COC(=O)CCCCCCC/C=C\CCCCCCCC)OC(=O)CCCCCCC/C=C\CCCCCCCC)OC(=O)CCCCCCC/C=C\CCCCCCCC (some centres unmarked) [CL, 18∶1 cardiolipin]
- 22Na+ uptake into proteoliposomes (pore-only NavMs): small but significant increase in activity when CL was present in the liposomes

Molecule: CCCCCCCC/C=C\CCCCCCCC(=O)O[C@H](COC(=O)CCCCCCCCCCCCCCC)COP(=O)(O)OCC(O)CO (some centres unmarked) [PG, 1-palmitoyl 2-oleoyl phospatidyl glycerol]
- 22Na+ uptake into proteoliposomes (NaChBac): NavMs and NaChBac also showed maximal activity with a negatively-charged lipid
- 22Na+ uptake into proteoliposomes (NavMs): NavMs and NaChBac also showed maximal activity with a negatively-charged lipid

Molecule: NavSp pore-only construct (voltage sensor subdomain removed) (domain or fragment)
- stoichiometry N [1]: 4

Molecule: NavSp, voltage-gated sodium channel from Silicibacter pomeroyi (from UniProt F7IVA8 1-258) (natural protein)
- stoichiometry N [2]: 4

Molecule: phosphatidylinositol 4,5-bisphosphate [PI(4,5)P2]
- % inhibition at 1% PI(4,5)P2 (NavSp): ~ 50%

B1: NavMs pore-only construct (voltage sensor subdomain removed) (domain or fragment, Magnetococcus spirillium (strain MC-1))
chain: T1 sequence (A0L5S6 130-237)
notes: NavMs of Magnetococcus spirillium (strain MC-1), Uniprot ID printed as AOL5S6 (A0L5S6), pore-only construct without the voltage sensor subdomain; PDB 4F4L is the cited crystal structure of the NavMs pore; also called pore-only NavMs; source: E. coli, purified in decyl maltoside (DM)
- stoichiometry N [3]: 4

B2: NaChBac, voltage-gated sodium channel from Bacillus halodurans (natural protein, UniProt Q9KCR8 1-274, looked up)
chain: T2 sequence (Q9KCR8 1-274)
notes: NaChBac, voltage-gated sodium channel of Bacillus halodurans, Uniprot ID Q9KCR8, full length; pET15b vector was bought; source: E. coli, purified (DDM solubilisation, Ni-NTA in Cymal-5, thrombin, gel filtration)
- stoichiometry N [4]: 4
